Results taken from ChEMBL document CHEMBL5365395, “Optimization of a series of novel, potent and selective Macrocyclic SYK inhibitors” (Bioorg Med Chem Lett, 2023).

Key:
[1] = Intrinsic clearance in rat hepatocytes assessed per million cells; type: ADME, cell-based, Hepatocyte; settings: read-out: CLH
[2] = Intrinsic Clearance in human liver microsome; type: ADME; settings: liver microsomes, read-out: CLH
[3] = test system: SUD4; experiment: Cytotoxicity against human SU-DHL-4 cells assessed as reduction in cell viability
[4] = Lipophilicity, logD of the compound in buffer/octanol volume ratio of 100:1 at pH 7.4 by shake flask method; type: physicochemical
[5] = molecular target: Voltage-gated inwardly rectifying potassium channel KCNH2 (Homo sapiens, UniProt Q12809); experiment: Inhibition of human ERG by patch clamp assay; type: toxicity
[6] = Apparent permeability across apical to basolateral side in human Caco-2 cells at pH 6.5 after 45 to 120 mins by LC-MS/MS analysis; type: ADME, cell-based; settings: Caco-2, pH 6.5, time 45-120 min
[7] = Hydrolytic stability of the compound at pH 1 assessed as half life; type: physicochemical; settings: buffer
[8] = Hydrolytic stability of the compound at pH 7.4 assessed as half life; type: physicochemical; settings: buffer
[9] = Hydrolytic stability of the compound at pH 10 assessed as half life; type: physicochemical; settings: buffer
[10] = molecular target: Tyrosine-protein kinase SYK (Homo sapiens, UniProt P43405); experiment: Inhibition of full length recombinant human SYK
[11] = Clearance in Han-Wistar rat at 1 umol/kg, iv; type: ADME; settings: in vivo, dose 1 µmol/kg
[12] = Oral bioavailability in Han-Wistar rat at 2 umol/kg; type: ADME, organism-based; settings: in vivo, at 2 µmol/kg
[13] = Volume of distribution at steady state in Han-Wistar rat at 1 umol/kg, iv; type: ADME; settings: in vivo, dose 1 µmol/kg, read-out: Vdss
[14] = Plasma protein binding in Han-Wistar rat assessed as fraction unbound; type: ADME, cell-free
[15] = Intrinsic clearance in Han-Wistar rat hepatocytes; type: ADME, cell-based, Hepatocyte
[16] = molecular target: Mitogen-activated protein kinase kinase kinase 9 (Homo sapiens) (UniProt P80192); experiment: Inhibition of MAP3K9 (unknown origin) at 0.1 uM relative to control
[17] = Clearance in Beagle Dog at 1 umol/kg, iv; type: ADME, Canis lupus familiaris; settings: in vivo, dose 1 µmol/kg
[18] = Volume of distribution at steady state in Beagle Dog at 1 umol/kg, iv; type: ADME, Canis lupus familiaris; settings: in vivo, dose 1 µmol/kg, read-out: Vdss
[19] = Oral bioavailability in Beagle Dog at 2 umol/kg; type: ADME, organism-based, Canis lupus familiaris; settings: in vivo, at 2 µmol/kg
[20] = Intrinsic clearance in Beagle Dog hepatocytes; type: ADME, cell-based, Canis lupus familiaris, Hepatocyte

Chain of Voltage-gated inwardly rectifying potassium channel KCNH2 (Q12809 whole entry): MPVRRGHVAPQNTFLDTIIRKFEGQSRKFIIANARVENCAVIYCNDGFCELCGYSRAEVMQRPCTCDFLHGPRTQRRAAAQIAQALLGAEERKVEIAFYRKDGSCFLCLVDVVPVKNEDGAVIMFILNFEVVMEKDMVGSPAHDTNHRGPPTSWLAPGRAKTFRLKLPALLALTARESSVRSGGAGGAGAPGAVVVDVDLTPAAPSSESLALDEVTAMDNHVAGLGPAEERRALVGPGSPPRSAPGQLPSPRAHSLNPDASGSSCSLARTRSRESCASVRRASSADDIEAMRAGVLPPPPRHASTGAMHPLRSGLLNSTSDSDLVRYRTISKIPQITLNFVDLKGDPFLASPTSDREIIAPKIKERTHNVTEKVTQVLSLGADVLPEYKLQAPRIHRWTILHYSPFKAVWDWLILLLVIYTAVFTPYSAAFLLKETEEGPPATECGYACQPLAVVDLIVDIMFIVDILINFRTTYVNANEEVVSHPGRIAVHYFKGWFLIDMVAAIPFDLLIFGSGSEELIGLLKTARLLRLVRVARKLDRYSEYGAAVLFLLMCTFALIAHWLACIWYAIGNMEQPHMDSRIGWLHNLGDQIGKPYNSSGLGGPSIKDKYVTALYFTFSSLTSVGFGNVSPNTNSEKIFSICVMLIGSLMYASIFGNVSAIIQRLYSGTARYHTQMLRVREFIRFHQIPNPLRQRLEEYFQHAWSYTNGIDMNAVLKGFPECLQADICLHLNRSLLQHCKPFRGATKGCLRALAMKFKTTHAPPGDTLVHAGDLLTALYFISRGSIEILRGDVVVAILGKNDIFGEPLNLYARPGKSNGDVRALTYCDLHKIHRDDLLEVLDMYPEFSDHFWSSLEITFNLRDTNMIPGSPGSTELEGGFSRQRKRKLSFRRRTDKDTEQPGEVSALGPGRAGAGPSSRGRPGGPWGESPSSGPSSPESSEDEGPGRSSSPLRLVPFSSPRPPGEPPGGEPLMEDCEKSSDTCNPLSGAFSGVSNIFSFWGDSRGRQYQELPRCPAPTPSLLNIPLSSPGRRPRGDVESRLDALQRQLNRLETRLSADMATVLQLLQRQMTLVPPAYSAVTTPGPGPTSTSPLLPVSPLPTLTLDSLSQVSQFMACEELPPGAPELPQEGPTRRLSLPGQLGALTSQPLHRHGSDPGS
Chain of Mitogen-activated protein kinase kinase kinase 9 (Homo sapiens) (P80192 whole entry, looked up): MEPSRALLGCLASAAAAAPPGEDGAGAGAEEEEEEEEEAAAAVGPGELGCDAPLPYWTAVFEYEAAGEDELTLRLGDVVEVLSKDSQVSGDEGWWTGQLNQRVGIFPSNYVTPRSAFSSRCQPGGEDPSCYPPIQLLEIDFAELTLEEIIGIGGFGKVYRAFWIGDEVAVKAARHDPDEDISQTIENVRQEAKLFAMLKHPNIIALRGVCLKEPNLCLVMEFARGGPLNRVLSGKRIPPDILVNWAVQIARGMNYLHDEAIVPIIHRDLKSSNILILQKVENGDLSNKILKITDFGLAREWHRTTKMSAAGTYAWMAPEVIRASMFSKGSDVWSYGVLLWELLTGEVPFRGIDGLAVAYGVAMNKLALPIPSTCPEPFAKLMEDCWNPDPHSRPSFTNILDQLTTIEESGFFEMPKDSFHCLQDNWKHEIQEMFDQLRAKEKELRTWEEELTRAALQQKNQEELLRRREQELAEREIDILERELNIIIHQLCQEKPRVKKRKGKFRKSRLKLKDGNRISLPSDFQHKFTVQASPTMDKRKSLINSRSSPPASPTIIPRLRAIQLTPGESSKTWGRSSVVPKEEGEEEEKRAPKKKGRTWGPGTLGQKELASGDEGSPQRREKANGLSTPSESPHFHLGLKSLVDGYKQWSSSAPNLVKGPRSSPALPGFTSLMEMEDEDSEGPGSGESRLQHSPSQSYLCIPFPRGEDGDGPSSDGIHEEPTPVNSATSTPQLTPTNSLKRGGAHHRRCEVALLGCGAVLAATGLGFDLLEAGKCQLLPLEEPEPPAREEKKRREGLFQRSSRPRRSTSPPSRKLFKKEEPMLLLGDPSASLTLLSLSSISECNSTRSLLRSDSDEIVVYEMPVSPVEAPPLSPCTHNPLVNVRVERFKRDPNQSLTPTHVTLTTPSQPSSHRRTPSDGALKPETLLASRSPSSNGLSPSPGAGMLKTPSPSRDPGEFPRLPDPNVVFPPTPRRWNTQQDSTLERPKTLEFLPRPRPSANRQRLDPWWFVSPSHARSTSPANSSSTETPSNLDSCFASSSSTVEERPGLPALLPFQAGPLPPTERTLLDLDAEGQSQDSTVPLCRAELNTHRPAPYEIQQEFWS

SMILES	hepatocyte CLint [1] [µL/min/1e6 cells]	microsomal CLint [2] [µL/min/mg]	logD [4]	Papp A→B [6] [×10⁻⁶ cm/s]	IC50 [3] [nM]	IC50 [5] [nM]	other results
Cc1nn2cc1CN(C)N1CC(CNC(=O)c3nn(C)c4ccc(cc34)Nc3nccc-2n3)C1	27	18	1.2		1200		
CNC(=O)c1nn(C)c2ccc(Nc3nccc(-n4cc(CN(C)C)c(C)n4)n3)cc12					240		
Cc1nn2cc1CN(C)N1CCC(O)(CCNC(=O)c3nn(C)c4ccc(cc34)Nc3nccc-2n3)CC1	2.1	28	1.6	1.9	100	8800	
CC(=O)OCCn1nc2c3cc(ccc31)Nc1nccc(n1)-n1cc(c(C)n1)CN(C)CCOCCNC2=O	198	> 300	1.9	3.6	990	2100	half-life [7]: 0.7 h; half-life [8]: 6.8 h; half-life [9]: < 0.5 h
Cc1nn2cc1CN(C)CCOCCNC(=O)c1nn(CCOC(=O)C(C)(C)C)c3ccc(cc13)Nc1nccc-2n1	163	> 300	3.1	8	1000	1100	half-life [7]: > 100 h; half-life [8]: 30 h; half-life [9]: 5 h
Cc1nn2cc1CN(C)CCCCCNC(=O)c1nn(C)c3ccc(cc13)Nc1nccc-2n1	12	44	2.7		2200		
Cc1nn2cc1CN(C)CCOCCNC(=O)c1nn(C3COC3)c3ccc(cc13)Nc1nccc-2n1	4.6	28	1.7	3.7	550	3700	
Cc1nn2cc1CN(C)N1CCC(CCNC(=O)c3nn(C)c4ccc(cc34)Nc3nccc-2n3)CC1	15	76	2.3		350		
CC(=O)OC(C)(C)Cn1nc2c3cc(ccc31)Nc1nccc(n1)-n1cc(c(C)n1)CN(C)CCOCCNC2=O	63	229	2.5	13	850	1200	half-life [7]: 6.5 h; half-life [8]: 72 h; half-life [9]: 2.9 h

Continued, in another order:

hepatocyte CLint [1] [µL/min/1e6 cells]	microsomal CLint [2] [µL/min/mg]	logD [4]	Papp A→B [6] [×10⁻⁶ cm/s]	SMILES	IC50 [3] [nM]	IC50 [5] [nM]	other results
4.4	39	1.4		Cc1nn2cc1CN(C)CCOCCNC(=O)c1nn(C[C@@H](C)O)c3ccc(cc13)Nc1nccc-2n1	260	22000	
8.1	25	1.8	19	Cc1nn2cc1CN(C)CCOCCNC(=O)c1nn(C)c3ccc(cc13)Nc1nccc-2n1	570	850	IC50 [10]: 0.13 nM; clearance [11]: 16 mL/min/kg; bioavailability [12]: 64%; Vd [13]: 1.9 L/kg; Fu [14]: 7%; CLH [15]: 8.1 µL/min/1e6 cells; inhibition [16]: > 70%
6.5	34	1.3		Cc1nn2cc1CN(C)CCOCCNC(=O)c1nn(C[C@H](C)O)c3ccc(cc13)Nc1nccc-2n1	390	> 22000	
< 1.6	23	1.2	1.12	Cc1nn2cc1CN(C)CCOCCNC(=O)c1nn(CCO)c3ccc(cc13)Nc1nccc-2n1	280	> 39000	clearance [11]: 33 mL/min/kg; bioavailability [12]: 0.9%; Vd [13]: 2.1 L/kg; Fu [14]: 16%; CLH [15]: < 1.5 µL/min/1e6 cells; clearance [17]: 9 mL/min/kg; Vd [18]: 1.9 L/kg; bioavailability [19]: 0.38%; CLH [20]: < 1 µL/min/1e6 cells
3.4	52	1.6		Cc1nn2cc1CN(C)CCOCCNC(=O)c1nn(CC(C)(C)O)c3ccc(cc13)Nc1nccc-2n1	480	8000	
